One assay deals with HUVEC. Description: Inhibition of HUVEC growth by CR-4 induced VEGF depleted media of breast cancer cell lines ([3H]-Thymidine incorporation). The assay is classed as cell-based, human. The conditions noted are these: FIG. 5. How it is done: CR-4 dependent inhibition of VEGF secretion results in the inhibition of HUVEC growth.
After an incubation for 5 hrs. with various concentrations of CR-4 the wells were washed twice and fresh HUVEC medium was added for 24 hrs. This medium with or without 10 ng/ml of recombinant VEGF was then transferred to parallel wells containing 10^5 cells/ml of HUVEC that were plated and grown in HUVEC medium for 24 hrs. Radioactive labelled [^3H]-Thymidine was added to HUVEC wells over night. Cells were harvested and their [^3H]-Thymidine incorporation was measured.
In general terms: Uptake of a labelled nucleoside into DNA is a usual measure of proliferation.

Assay [1] in a line: CR-4 dependent inhibition of VEGF secretion from cell lines (VEGF-165 ELISA of medium). To be noted: Homo sapiens; all cell lines; 10^6 cells/ml incubated 5 hrs with compound, washed, fresh medium 24 hrs; FIGS. 1 to 4. The assay is classed as cell-based. The method, then: VEGF secretion from the breast cancer cell lines HTB-133 (KDR+), HTB-131 (KDR−) and MDA-231, HTB-181 prostate cancer cell line, HTB-72 melanoma cell line, CR2-1730 human umbilical vascular endothelial (HUV-EC-C) cell line and normal HUVEC primary cells was measured as follows.
Medium was collected and analysed for the presence of VEGF using VEGF-165 ELISA kit (R&D Systems).
CR-4 dependent inhibition of VEGF secretion from breast, prostate, melanoma and HUVEC cell lines.
10^6 cells/ml of each cell lines were incubated for 5 hrs. with various concentrations of CR-4. Cells were washed twice in PBS to remove CR4 and fresh medium was added for 24 hrs. Medium was collected and analysed for the presence of VEGF using VEGF-165 ELISA kit (R&D Systems).
(In an ELISA, binding on a coated surface is turned into a signal by an enzyme label.)

Assay [2] deals with VEGF secretion from HTB-133 and MDA-231 cells. In words: CR11 and CR19 dependent inhibition of VEGF secretion from breast cancer cell lines (VEGF-165 ELISA of medium). Type of assay: cell-based. To be noted: Homo sapiens, MDA-MB-231, 10^6 cells/ml incubated 5 hours with compound, washed, fresh medium 24 hours, FIGS. 6 and 7. The method, then:
CR11 and CR19 dependent inhibition of VEGF secretion from breast cancer cell lines.
Procedure: 10^6 cells/ml of each of HTB-133 and MDA-231 cells were incubated for 5 hours with various concentrations of CR11 or CR19. Cells were washed twice in PBS to remove CR11 and CR19 and fresh medium was added for 24 hours. Medium was collected and analysed for the presence of VEGF using VEGF-165 ELISA kit (R&D Systems).

A word on the IC50: it is the midpoint of a concentration-inhibition curve. Take `N#C/C(=C\C=C\c1ccc(O)c(O)c1)C(=O)NCc1ccccc1` [CR4, (E,E)-2-(Benzylaminocarbonyl)-3-(3,4-dihydroxystyryl)acrylonitrile]: in the assay on HUVEC (10 ng/ml recombinant VEGF added to the conditioned medium), the “Effect of recombinant VEGF on the inhibition of HUVEC growth” value is “rescued by recombinant VEGF”. Further, the IC50 in the assay with HUVEC (Homo sapiens, medium of HTB-133 (KDR+) and HTB-131 (KDR-) cells treated 5 hrs with compound, transferred to HUVEC, [3H]-Thymidine incorporation) was in the range of 20 to 30 nM; in assay [1] it was 10 to 30 nM.

In the case of `COc1cc(/C=C/C=C(\C#N)C(=O)NCc2ccc(O)c(O)c2)cc(OC)c1O` [CR11, (E,E)-2-(3,4-Dihydroxybenzylaminocarbonyl)-3-(3,5-dimethoxy-4-hydroxystyryl)acrylonitrile], in assay [2], the IC50 was approximately 30 nM.

Take `N#C/C(=C\C=C\c1ccccc1)C(=O)NCc1ccc(O)c(O)c1` [CR19, (E,E)-2-(3,4 Dihydroxybenzylaminocarbonyl)-3-styrylacrylonitrile]: in assay [2], the IC50 is approximately 30 nM.

The values above are taken from patent US20060241084A1, “Inhibition of vascular endothelial growth factor” (THE HOSPITAL FOR SICK CHILDREN, priority 2002, published 2006).
